This assay has as its target GST-CCNT1 (AA 1–300) (Homo sapiens, UniProt O60563). The assay is described as follows: AlphaLISA disruption of CCNT1-AFF4 peptide interaction. It is filed as binding. For orientation: In Alpha technology, singlet oxygen from a donor bead excites a nearby acceptor bead.

Molecules are shown by their SMILES.

A word on the Ki: it is the equilibrium dissociation constant of an inhibitor or competing ligand from its target. High values mean lower affinity, low ones higher affinity.

GST-CCNT1 (AA 1–300), sequence (O60563 1-300): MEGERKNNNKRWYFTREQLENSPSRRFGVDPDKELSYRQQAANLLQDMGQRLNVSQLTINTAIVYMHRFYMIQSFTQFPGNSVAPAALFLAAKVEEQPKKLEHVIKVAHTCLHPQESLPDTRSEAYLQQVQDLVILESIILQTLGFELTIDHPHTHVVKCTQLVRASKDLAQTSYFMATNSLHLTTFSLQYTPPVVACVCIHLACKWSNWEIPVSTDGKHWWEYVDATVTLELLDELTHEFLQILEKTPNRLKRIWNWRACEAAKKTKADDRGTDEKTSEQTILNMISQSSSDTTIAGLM

`COc1cccc(C(=O)/C=C(\O)C(=O)Nc2cc(Cl)ccc2C)c1` [4a, (2Z)-N-(5-Chloro-2-methylphenyl)-2-hydroxy-4-(3-methoxyphenyl)-4-oxo-2butenamide] displayed an inhibitory constant (Ki) of 3.48 µM.

The values are drawn from PMC6422358 (Cell, 2018).
